Like-named read-outs stand apart in the source and are kept apart here.

What all share (assay type): binding
Assay [1] concerns the target T1, HeLa cell extract proteins (Homo sapiens, UniProt Q15366).
T1 construct: endogenous in cells; host or cells: HeLa cell extract

Assay [2] deals with T2, HeLa cell extract proteins (Homo sapiens, UniProt P05166).
T2 construct: endogenous in cells; host or cells: HeLa cell extract
T2 sequence (P05166 29-539): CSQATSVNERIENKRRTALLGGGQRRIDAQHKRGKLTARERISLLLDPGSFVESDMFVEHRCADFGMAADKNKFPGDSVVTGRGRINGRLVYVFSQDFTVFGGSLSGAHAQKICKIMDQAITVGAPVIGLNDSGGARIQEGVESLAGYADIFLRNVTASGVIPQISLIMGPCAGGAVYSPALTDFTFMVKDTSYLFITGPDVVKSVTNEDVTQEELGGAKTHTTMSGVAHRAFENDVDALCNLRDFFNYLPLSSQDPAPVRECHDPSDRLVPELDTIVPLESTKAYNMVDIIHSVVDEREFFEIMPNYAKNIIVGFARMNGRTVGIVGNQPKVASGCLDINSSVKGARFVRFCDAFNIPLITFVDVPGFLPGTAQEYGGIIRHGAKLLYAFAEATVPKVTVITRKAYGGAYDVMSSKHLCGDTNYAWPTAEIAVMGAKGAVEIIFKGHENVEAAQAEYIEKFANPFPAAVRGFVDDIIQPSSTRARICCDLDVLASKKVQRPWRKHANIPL

Assay [3] deals with T3, HeLa cell extract proteins (Homo sapiens, UniProt Q9ULK4).
T3 construct: endogenous in cells; host or cells: HeLa cell extract
T3 sequence (Q9ULK4 1-1368): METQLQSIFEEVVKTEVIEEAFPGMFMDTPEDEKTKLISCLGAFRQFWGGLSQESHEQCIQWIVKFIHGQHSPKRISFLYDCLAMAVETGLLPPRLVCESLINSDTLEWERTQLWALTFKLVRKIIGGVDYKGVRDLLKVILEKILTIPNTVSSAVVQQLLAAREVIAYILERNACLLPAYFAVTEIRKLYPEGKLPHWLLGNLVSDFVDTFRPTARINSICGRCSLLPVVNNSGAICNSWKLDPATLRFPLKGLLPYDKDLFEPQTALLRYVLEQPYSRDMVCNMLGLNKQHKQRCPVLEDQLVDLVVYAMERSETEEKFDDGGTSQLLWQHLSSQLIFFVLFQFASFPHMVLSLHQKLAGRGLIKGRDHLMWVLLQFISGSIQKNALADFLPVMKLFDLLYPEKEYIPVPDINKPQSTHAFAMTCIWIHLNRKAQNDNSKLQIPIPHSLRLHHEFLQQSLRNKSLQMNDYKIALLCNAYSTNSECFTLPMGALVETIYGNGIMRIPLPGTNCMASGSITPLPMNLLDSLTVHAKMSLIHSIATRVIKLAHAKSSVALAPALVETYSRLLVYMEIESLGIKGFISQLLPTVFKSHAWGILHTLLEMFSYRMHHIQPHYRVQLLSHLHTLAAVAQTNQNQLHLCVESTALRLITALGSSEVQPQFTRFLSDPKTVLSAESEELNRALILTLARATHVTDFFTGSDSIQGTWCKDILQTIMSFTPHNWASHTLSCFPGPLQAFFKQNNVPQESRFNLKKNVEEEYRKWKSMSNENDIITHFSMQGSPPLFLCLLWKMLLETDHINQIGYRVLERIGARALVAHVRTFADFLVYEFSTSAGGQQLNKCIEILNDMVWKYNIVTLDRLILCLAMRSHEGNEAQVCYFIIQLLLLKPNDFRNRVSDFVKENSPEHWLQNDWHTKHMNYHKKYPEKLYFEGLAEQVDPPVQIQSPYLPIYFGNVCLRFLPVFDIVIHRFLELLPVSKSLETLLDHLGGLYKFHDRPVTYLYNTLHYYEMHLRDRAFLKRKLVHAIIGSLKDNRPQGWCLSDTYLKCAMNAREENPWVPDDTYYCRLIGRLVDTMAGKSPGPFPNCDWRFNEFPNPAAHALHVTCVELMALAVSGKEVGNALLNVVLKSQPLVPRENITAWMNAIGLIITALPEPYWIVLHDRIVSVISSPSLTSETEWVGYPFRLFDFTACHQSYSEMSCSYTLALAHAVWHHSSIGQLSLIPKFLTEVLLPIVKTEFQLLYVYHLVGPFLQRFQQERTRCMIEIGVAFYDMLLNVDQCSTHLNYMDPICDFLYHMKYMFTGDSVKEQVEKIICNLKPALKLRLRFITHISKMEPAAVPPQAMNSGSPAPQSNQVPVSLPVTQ

The target in assay [4] is T4, HeLa cell extract proteins (Homo sapiens, UniProt Q9H773).
T4 construct: endogenous in cells; host or cells: HeLa cell extract
T4 sequence (Q9H773 1-170): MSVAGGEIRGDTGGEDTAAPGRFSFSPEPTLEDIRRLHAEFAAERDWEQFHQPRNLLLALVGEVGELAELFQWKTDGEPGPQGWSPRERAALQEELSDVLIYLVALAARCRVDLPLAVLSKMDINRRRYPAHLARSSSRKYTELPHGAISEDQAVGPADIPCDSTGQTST

The target of assay [5] is T5, HeLa cell extract proteins (Homo sapiens, UniProt P05141).
T5 construct: endogenous in cells; host or cells: HeLa cell extract
T5 sequence (P05141 1-298): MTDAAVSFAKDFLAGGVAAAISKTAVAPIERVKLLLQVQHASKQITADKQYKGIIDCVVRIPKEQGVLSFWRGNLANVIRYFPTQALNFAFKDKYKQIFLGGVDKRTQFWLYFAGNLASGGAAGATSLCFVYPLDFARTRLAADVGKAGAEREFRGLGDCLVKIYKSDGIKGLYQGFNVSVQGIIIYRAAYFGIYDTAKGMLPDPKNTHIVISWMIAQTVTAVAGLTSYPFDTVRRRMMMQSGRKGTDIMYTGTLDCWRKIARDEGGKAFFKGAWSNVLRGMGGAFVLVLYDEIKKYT

For assay [6], the target named is T6, HeLa cell extract proteins (Homo sapiens, UniProt P81605).
T6 construct: endogenous in cells; host or cells: HeLa cell extract
T6 sequence (P81605 20-110): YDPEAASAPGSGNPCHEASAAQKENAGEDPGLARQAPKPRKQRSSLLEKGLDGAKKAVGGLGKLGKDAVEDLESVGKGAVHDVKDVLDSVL

Where [7] appears, read: HeLa, protein XTP3TPA (XTP3-TRAN[…] A PROTEIN).

T1 sequence (Q15366 whole entry): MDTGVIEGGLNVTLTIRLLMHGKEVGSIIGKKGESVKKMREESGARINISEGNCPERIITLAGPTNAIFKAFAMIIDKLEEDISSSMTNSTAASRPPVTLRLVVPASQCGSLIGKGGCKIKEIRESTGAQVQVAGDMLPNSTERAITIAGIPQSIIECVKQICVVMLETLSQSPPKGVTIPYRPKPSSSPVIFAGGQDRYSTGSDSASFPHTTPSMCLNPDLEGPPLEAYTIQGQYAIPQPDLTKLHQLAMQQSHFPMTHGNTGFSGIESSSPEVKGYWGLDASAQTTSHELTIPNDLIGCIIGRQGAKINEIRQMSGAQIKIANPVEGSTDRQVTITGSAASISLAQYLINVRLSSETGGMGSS

On to `Nc1nc2cccc(-c3ccccc3)c2n1Cc1ccc(Cl)c(Cl)c1` [compound 3], for which the “fold changes relative to vehicle control” value in assay [1] (protein PCBP2, HeLa) is recorded as 0.91; in assay [2] (captured protein PCCB, HeLa), 1; in assay [3] (captured protein MED23, HeLa), 1.1; in assay [4] (captured protein XTP3TPA, HeLa), 1.14; in assay [5] (captured protein SLC25A5, HeLa), 1.02; in assay [6] (protein DCD, HeLa) it was 1.26.

As for `NCCOCCOCC(=O)Nc1nc2ncc(CNc3ccc(C(=O)NC(CCC(=O)O)C(=O)O)cc3)nc2c(=O)[nH]1` (stereo not drawn) [compound 6], the “fold changes relative to vehicle control” value in assay [1] (protein PCBP2, HeLa) amounted to 1.04; in assay [2] (HeLa, protein PCCB) it was 0.91; in assay [3] (HeLa, protein MED23), 0.93; in assay [4] (HeLa, protein XTP3TPA (XTP3-TRANSACTIVATED GENE A PROTEIN)) it was 0.51; in assay [5] (HeLa, protein SLC25A5) it was 0.97; in assay [6] (protein DCD, HeLa) it was 0.86.

For `Nc1nc2[nH]cc(CCc3ccc(C(=O)N[C@@H](CCC(=O)O)C(=O)O)cc3)c2c(=O)[nH]1` [PTX, pemetrexed], the “fold changes relative to vehicle control” value is given as 1.03 in assay [1]; 0.22 in assay [2]; 0.95 in assay [3]; 1.09 in assay [4]; 0.9 in assay [5]; 1.53 in assay [6].

`Nc1nc2c(c(=O)[nH]1)N(C=O)C(CNc1ccc(C(=O)N[C@@H](CCC(=O)O)C(=O)O)cc1)CN2` (stereo partly drawn) [LEU, leucovorin]: the “fold changes relative to vehicle control” value in assay [1] (protein PCBP2, HeLa) is listed as 0.85; in assay [2] (HeLa, protein PCCB) it was 0.97; in assay [3] (HeLa, protein MED23) it was 0.91; in assay [4] (setting [7]), 1.14; in assay [5] (HeLa, protein SLC25A5) it was 0.84; in assay [6] (protein DCD, HeLa), 0.78.

Consider `CCCCCCOc1ccc(Cc2cnc(N)nc2N)cc1` [compound 1], for which the “fold changes relative to vehicle control” value in assay [1] (protein PCBP2, HeLa) was found to be 0.96; in assay [2] (captured protein PCCB, HeLa), 0.99; in assay [3] (captured protein MED23, HeLa), 0.94; in assay [4] (captured protein XTP3TPA, HeLa), 0.91; in assay [5] (captured protein SLC25A5, HeLa) it was 0.96; in assay [6] (protein DCD, HeLa), 9.15.

Consider `NCCCNc1ccc(C(=O)NC(CCC(=O)O)C(=O)O)cc1` (stereo not drawn) [compound 7], for which the “fold changes relative to vehicle control” value was determined as 0.96 in assay [1] (protein PCBP2, HeLa); 1.17 in assay [2] (HeLa, protein PCCB); 0.97 in assay [3] (HeLa, protein MED23); 1.21 in assay [4] (setting [7]); 0.96 in assay [5] (HeLa, protein SLC25A5); 1.23 in assay [6] (protein DCD, HeLa).

Take `CCCCCCOc1cccc(Cc2cnc(N)nc2N)c1` [compound 2]: the “fold changes relative to vehicle control” value in assay [1] (protein PCBP2, HeLa) was 1.28; in assay [2] (captured protein PCCB, HeLa) it was 0.92; in assay [3] (captured protein MED23, HeLa), 1.04; in assay [4] (captured protein XTP3TPA, HeLa), 0.73; in assay [5] (captured protein SLC25A5, HeLa), 0.9; in assay [6] (protein DCD, HeLa), 1.52.

The values are drawn from article PMC6199744, “Development of Chemical Proteomics for the Folateome and Analysis of the Kinetoplastid Folateome” (ACS Infectious Diseases, 2018).
